We go through 15 molecules from ChEMBL document CHEMBL4417638, “Novel cyclic peptides and uses thereof” (2018).

Structures are written as SMILES. Active and inactive are the calls of the source. The calls are words filed in the database; no cut-off is given here. Numbered stars: 1 amine (or outer) side, 2 acyl side, 3 side chain; on linkers, the order of the positions; unused ones are H or OH. Square brackets hold non-standard residues; d marks the D form. Peptide text beside a SMILES is read from it. azaTyr = O=C(N(Cc1ccc(O)cc1)N[*:1])[*:2]

One assay concerns the target Platelet glycoprotein 4 (Rattus norvegicus, UniProt Q07969). Description: Displacement of [125]-Tyr-Bpa-Ala-Hexarelin from CD36 in Sprague-Dawley rat heart membranes incubated for 60 mins. It counts as cell membranes.
Assay [1] deals with RAW264.7. Description: Inhibition of R-FSL-1-induced nitric oxide production in mouse RAW264.7 cells at 10 uM pre-incubated for 1 hr before R-FSL-1 stimulation by fluorescence based assay relative to control. It counts as functional.
The test system of assay [2] is RAW264.7. Description: Inhibition of R-FSL-1-induced TNFalpha production in mouse RAW264.7 cells at 10 uM pre-incubated for 30 mins before R-FSL-1 stimulation for 4 hrs by ELISA. It counts as functional, cell-based. (In general: An ELISA detects its analyte on a solid surface through an enzyme-linked reagent.)
Assay [3] concerns RAW264.7. Description: Inhibition of R-FSL-1-induced CCL2 production in mouse RAW264.7 cells at 10 uM pre-incubated for 30 mins before R-FSL-1 stimulation for 4 hrs by ELISA. Format: functional, cell-based.
The test system of assay [4] is Mus musculus. Description: Anti-atherosclerotic activity in atherogenic diet fed apoE-/- mouse assessed as reduction in aortic lesions at 300 nmol/kg, sc dosed daily for 8 weeks from 12 weeks of age relative to control. It counts as functional.
In assay [5] the test system is BMDM. Description: Inhibition of R-FSL-1-induced TNFalpha production in C57BL/6 mouse BMDM at 10 pM to 1 uM pre-incubated for 30 mins before R-FSL-1 stimulation for 4 hrs by ELISA. It counts as functional, cell-based.
Assay [6] deals with Mus musculus. Description: Protection against photoreceptor degeneration in mouse model of intense blue light-induced dry age related macular degeneration assessed as reduction in subretinal inflammation by measuring reduction in IL-1p-expressing immune cell infiltration in retina at 289 nmol/kg, sc starting one day after start of blue-light exposure for 7 consecutive days. It counts as functional, organism-based.

Assay [7] has as its system Mus musculus. Description: Protection against photoreceptor degeneration in mouse model of intense blue light-induced dry age related macular degeneration assessed as preservation of ONL thickness at 289 nmol/kg, sc starting one day after start of blue-light exposure for 7 consecutive days. It counts as functional, organism-based.
Assay [8] deals with BMDM. Description: Inhibition of R-FSL-1-induced IL-1beta production in C57BL/6 mouse BMDM at 10 pM to 1 uM pre-incubated for 30 mins before R-FSL-1 stimulation for 4 hrs by ELISA. Format: functional, cell-based.
The subject of assay [9] is Mus musculus. Description: Protection against photoreceptor degeneration in mouse model of intense blue light-induced dry age related macular degeneration assessed as improvement of retinal function by measuring increase in a-wave and b-wave amplitudes at 289 nmol/kg, sc starting one day after start of blue-light exposure for 7 consecutive days by electroretinography analysis. It counts as functional, organism-based.

Chain of Platelet glycoprotein 4 (Q07969 whole entry): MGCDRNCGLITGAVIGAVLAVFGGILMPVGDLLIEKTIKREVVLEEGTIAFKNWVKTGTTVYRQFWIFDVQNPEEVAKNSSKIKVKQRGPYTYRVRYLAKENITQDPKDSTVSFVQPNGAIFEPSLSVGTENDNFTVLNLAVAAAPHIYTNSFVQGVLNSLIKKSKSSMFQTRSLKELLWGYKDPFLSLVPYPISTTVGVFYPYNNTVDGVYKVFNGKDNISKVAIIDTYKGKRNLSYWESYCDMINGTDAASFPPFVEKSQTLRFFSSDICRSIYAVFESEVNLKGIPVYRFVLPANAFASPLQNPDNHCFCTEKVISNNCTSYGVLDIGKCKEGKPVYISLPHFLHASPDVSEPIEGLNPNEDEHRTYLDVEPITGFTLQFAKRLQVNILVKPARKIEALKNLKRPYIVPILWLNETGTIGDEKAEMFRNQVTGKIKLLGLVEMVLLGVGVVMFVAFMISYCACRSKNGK

Consider `CCCN1CC#CCN(NC(=O)CN)C(=O)N[C@H](Cc2c[nH]c3ccccc23)C(=O)N[C@@H](C)C(=O)N[C@@H](Cc2c[nH]c3ccccc23)C(=O)N[C@H](Cc2ccccc2)C(=O)N[C@H](C(N)=O)CCCC1`, for which, at Platelet glycoprotein 4, the IC50 (usually the midpoint of a concentration-inhibition curve) stood at 1490 nM. In addition, the inhibition (commonly how much of the control response was suppressed) in the assay on RAW264.7 [1] was “Active”.
Turning to `C=CCN1CC#CCN(NC(C)=O)C(=O)N[C@H](Cc2c[nH]c3ccccc23)C(=O)N[C@@H](C)C(=O)N[C@@H](Cc2c[nH]c3ccccc23)C(=O)N[C@H](Cc2ccccc2)C(=O)N[C@H](C(N)=O)CCCC1`, the inhibition result with RAW264.7 [2], in the assay with RAW264.7 [3] and with Mus musculus [4] was “Active” in each case. The molecule also showed an inhibition at 10 µM in the assay with RAW264.7 [1] of 80%.
Take `C=CCN1CC#CCN(N)C(=O)N[C@H](Cc2c[nH]c3ccccc23)C(=O)N[C@@H](C)C(=O)N[C@@H](Cc2c[nH]c3ccccc23)C(=O)N[C@H](Cc2ccccc2)C(=O)N[C@H](C(N)=O)CCCC1`: the inhibition entry in the assay with RAW264.7 [2] and with RAW264.7 [3] was “inactive” throughout. In addition, in the assay with Mus musculus [4], the inhibition entry is “Active”. 10 µM produced 80% inhibition with RAW264.7 [1].
`C=CCN1CC#CCN(NC(=O)[C@H](C)N)C(=O)N[C@H](Cc2c[nH]c3ccccc23)C(=O)N[C@@H](C)C(=O)N[C@H](C(=O)N[C@H](Cc2ccccc2)C(=O)N[C@@H](CCCCN)C(N)=O)CCCC1`: in the assay on RAW264.7 [1], the inhibition entry is “Active”.
Same read-out and setting: as for `C=CCN1CC#CC[C@H](NC(=O)[C@H](C)N)C(=O)N[C@@H](C)C(=O)N[C@@H](Cc2c[nH]c3ccccc23)C(=O)N[C@H](Cc2ccccc2)C(=O)N[C@H](C(N)=O)CCCC1`, the entry is “Active”; as for `C=CCN1CC#CC[C@H](NC(=O)[C@H](C)N)C(=O)N[C@H](Cc2c[nH]c3ccccc23)C(=O)N[C@@H](C)C(=O)N[C@@H](Cc2c[nH]c3ccccc23)C(=O)N[C@H](Cc2ccccc2)C(=O)N[C@H](C(N)=O)CCCC1`, “Active”.
With `CN1CC#CCN(NC(=O)[C@@H](Cc2c[nH]c3ccccc23)NC(=O)[C@@H](N)Cc2cnc[nH]2)C(=O)N[C@@H](Cc2c[nH]c3ccccc23)C(=O)N[C@H](Cc2ccccc2)C(=O)N[C@H](C(N)=O)CCCC1`, the inhibition entry in the assay on RAW264.7 [2] and with RAW264.7 [3] was “inactive” each time.
Consider `C[C@H](NC(=O)[C@@H](Cc1c[nH]c2ccccc12)NC(=O)[C@@H](N)Cc1cnc[nH]1)C(=O)NN(Cc1ccc(O)cc1)C(=O)N[C@H](Cc1ccccc1)C(=O)N[C@@H](CCCCN)C(N)=O` (H-H[dW]A[azaTyr][dF]K-NH2), for which the inhibition result with RAW264.7 [2], in the assay on RAW264.7 [3] and with Mus musculus [4] was “Active” throughout.
As for `C=CCN1CC#CCN(NC(=O)[C@@H](Cc2c[nH]c3ccccc23)NC(=O)[C@@H](N)Cc2cnc[nH]2)C(=O)N[C@@H](Cc2c[nH]c3ccccc23)C(=O)N[C@H](Cc2ccccc2)C(=O)N[C@H](C(N)=O)CCCC1`, the inhibition entry with RAW264.7 [2], with RAW264.7 [3] and in the assay with RAW264.7 [1] was “Active” each time.
Take `C=CCN1CC#CCN(NC(=O)[C@H](C)N)C(=O)N[C@H](Cc2c[nH]c3ccccc23)C(=O)N[C@@H](C)C(=O)N[C@@H](Cc2c[nH]c3ccccc23)C(=O)N[C@H](Cc2ccccc2)C(=O)N[C@H](C(N)=O)CCCC1`: the inhibition result with RAW264.7 [2], in the assay on BMDM [5], with BMDM [8], with RAW264.7 [3] and in the assay on RAW264.7 [1] was “Active” each time. Moreover, the result in the assay on Mus musculus [6], in the assay on Mus musculus [7] and with Mus musculus [9] was Active.
`C=CCN1CC#CCN(NC(=O)[C@H](C)NC(C)=O)C(=O)N[C@H](Cc2c[nH]c3ccccc23)C(=O)N[C@@H](C)C(=O)N[C@@H](Cc2c[nH]c3ccccc23)C(=O)N[C@H](Cc2ccccc2)C(=O)N[C@H](C(N)=O)CCCC1`: the inhibition entry in the assay with RAW264.7 [2], with RAW264.7 [3] and with Mus musculus [4] was “Active” throughout. In addition, the inhibition at 10 µM with RAW264.7 [1] turned out to be 80%.
In the case of `C=CCN1CC#CCN(NC(=O)[C@@H](C)N)C(=O)N[C@H](Cc2c[nH]c3ccccc23)C(=O)N[C@@H](C)C(=O)NN(Cc2ccc(OC)cc2)C(=O)N[C@H](Cc2ccccc2)C(=O)N[C@H](C(N)=O)CCCC1`, the inhibition result in the assay with RAW264.7 [1] is “Active”.
As for `C[C@@H]1NC(=O)[C@@H](Cc2c[nH]c3ccccc23)NC(=O)N(NC(=O)CN)CC#CCN(CC2CC2)CCCC[C@@H](C(N)=O)NC(=O)[C@@H](Cc2ccccc2)NC(=O)[C@H](Cc2c[nH]c3ccccc23)NC1=O`, the IC50 at Platelet glycoprotein 4 worked out at 980 nM. For the same molecule, the inhibition entry with RAW264.7 [1] is “Active”.
With `C=CCN1CC#CCN(NC(=O)[C@H](C)N)C(=O)N[C@@H](C)C(=O)N[C@@H](Cc2c[nH]c3ccccc23)C(=O)N[C@H](Cc2ccccc2)C(=O)N[C@H](C(N)=O)CCCC1`, the inhibition entry with RAW264.7 [2], in the assay with RAW264.7 [3] and with RAW264.7 [1] was “Active” in each case.
For `C=CCN1CC#CCN(NC(=O)CN)C(=O)N[C@H](Cc2c[nH]c3ccccc23)C(=O)N[C@@H](C)C(=O)N[C@@H](Cc2c[nH]c3ccccc23)C(=O)N[C@H](Cc2ccccc2)C(=O)N[C@H](C(N)=O)CCCC1`, the IC50 at Platelet glycoprotein 4 came out at 12900 nM.
